For 23 compounds, IC50 results are on record in patent US8710038B2, “Pyrazole kinase modulators and methods of use” (Exelixis, Inc., priority 2004, dated 2014).

For one experiment, the target named is T1, flt-3 (Homo sapiens, UniProt P36888).
T1 construct: baculovirus expressed human Flt-3 kinase domain R571-S993
T1 sequence (P36888 571-993): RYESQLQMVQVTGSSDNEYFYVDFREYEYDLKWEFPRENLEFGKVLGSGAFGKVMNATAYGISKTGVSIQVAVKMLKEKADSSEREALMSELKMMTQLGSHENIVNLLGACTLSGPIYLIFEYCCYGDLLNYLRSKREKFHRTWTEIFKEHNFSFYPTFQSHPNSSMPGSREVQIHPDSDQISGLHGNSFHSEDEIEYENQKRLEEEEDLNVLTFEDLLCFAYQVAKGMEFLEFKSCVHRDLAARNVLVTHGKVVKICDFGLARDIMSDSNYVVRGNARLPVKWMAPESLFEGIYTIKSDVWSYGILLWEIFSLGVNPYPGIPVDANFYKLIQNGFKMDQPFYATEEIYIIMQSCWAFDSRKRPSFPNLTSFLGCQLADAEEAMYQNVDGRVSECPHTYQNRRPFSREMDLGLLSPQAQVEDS
Description: flt-3 Luciferase-Coupled Chemiluminescent Kinase assay (LCCA). In kind it is biochemical. The protocol:
In the LCCA assays, kinase activity is measured as the percent ATP consumed following the kinase reaction using luciferase-luciferin-coupled chemiluminescence. Greiner 384-well white, clear bottom, medium-binding plates are used for LCCA. Briefly, the kinase reaction is initiated by mixing compounds, ATP and kinase in a 20 uL volume. The mixture is incubated at ambient temperature for 2-4 hrs. At the end of the kinase reaction, a 20 uL luciferase-luciferin mix is added and the chemiluminescent signal is read using a Wallac Victor^2 reader. The luciferase-luciferin mix consists of 50 mM HEPES, pH 7.8, 8.5 ug/mL oxalic acid (pH 7.8), 5 (or 50) mM DTT, 0.4% Triton X-100, 0.25 mg/mL coenzyme A, 63 uM AMP, 28 ug/mL luciferin and 40,000 units of light/mL luciferase. For the LCCA assays, total ATP consumption has been standardized to 25-45% and the IC50 values correlates well with those determined by radiometric assays.
Flt-3 biochemical activity was assessed using a Luciferase-Coupled Chemiluminescent Kinase assay (LCCA) format. Kinase activity was measured as the percent ATP remaining following the kinase reaction. Remaining ATP was detected by luciferase-luciferin-coupled chemiluminescence. Specifically, the reaction was initiated by mixing test compounds, 5 μM ATP, 3 μM poly-EY and 5 nM Flt-3 (baculovirus expressed human Flt-3 kinase domain R571-S993) in a 20 uL assay buffer (20 mM Tris-HCL pH7.5, 10 mM MgCl2, 0.01% Triton X-100, 1 mM DTT, 2 mM MnCl2). The mixture is incubated at ambient temperature for 3 hours after which 20 uL luciferase-luciferin mix is added and the chemiluminescent signal read using a Wallac Victor^2 reader. The luciferase-luciferin mix consists of 50 mM HEPES, pH 7.8, 8.5 ug/mL oxalic acid (pH 7.8), 5 (or 50) mM DTT, 0.4% Triton X-100, 0.25 mg/mL coenzyme A, 63 uM AMP, 28 ug/mL luciferin and 40,000 units of light/mL luciferase.

Another experiment has as its target c-Kit (Homo sapiens, UniProt P10721). As to the kind of experiment: c-Kit biochemical assay (AlphaScreen). The text has this: AlphaScreen technology is a proximity assay which utilizes the increase in fluorescent signal occurring when donor and acceptor beads are close in proximity. Biotinylated poly(Glu,Tyr) 4:1 is used as the kinase substrate, in conjunction with streptavidin-coated donor beads and anti-phosphortyrosine antibody PY100-coated acceptor beads. Upon phosphorylation, the peptide substrate can bind to both donor and acceptor beads giving rise to an increase in fluorescence. Compounds, ATP, biotinylated poly(Glu, Tyr) and kinases are mixed in a volume of 20 uL for 1 hr at ambient temperature using Greiner 384-well white clear bottom medium binding plates. Following incubation a 10 uL solution containing […] AlphaScreen beads, 75 mM Hepes, pH 7.4, 300 mM NaCl, 120 mM EDTA, 0.3% BSA and 0.03% Tween-20 is added to each well. After 2-16 hr incubation of the beads, plates are read in a Perkin Elmer AlphaQuest reader. The IC50 values correlates well with those of radiometric assays.
c-Kit biochemical activity was assessed using AlphaScreen™ (Perkin Elmer) technology, described above. Test compounds, ATP, biotinylated poly(Glu, Tyr) and c-Kit kinase were combined in a volume of 20 μL in a 384-well white, medium binding microtiter plate (Greiner). Reaction mixtures were incubated for 1 hr at ambient temperature. Reactions were quenched by addition of 10 uL of […] AlphaScreen bead suspension containing 75 mM Hepes, pH 7.4, 300 mM NaCl, 120 mM EDTA, 0.3% BSA and 0.03% Tween-20. After 16 hr incubation at ambient temperature plates were read using an AlphaQuest reader (Perkin Elmer).
On the technique in general: Bead proximity is the source of the signal in Alpha formats.

Chain of c-Kit (P10721 26-976): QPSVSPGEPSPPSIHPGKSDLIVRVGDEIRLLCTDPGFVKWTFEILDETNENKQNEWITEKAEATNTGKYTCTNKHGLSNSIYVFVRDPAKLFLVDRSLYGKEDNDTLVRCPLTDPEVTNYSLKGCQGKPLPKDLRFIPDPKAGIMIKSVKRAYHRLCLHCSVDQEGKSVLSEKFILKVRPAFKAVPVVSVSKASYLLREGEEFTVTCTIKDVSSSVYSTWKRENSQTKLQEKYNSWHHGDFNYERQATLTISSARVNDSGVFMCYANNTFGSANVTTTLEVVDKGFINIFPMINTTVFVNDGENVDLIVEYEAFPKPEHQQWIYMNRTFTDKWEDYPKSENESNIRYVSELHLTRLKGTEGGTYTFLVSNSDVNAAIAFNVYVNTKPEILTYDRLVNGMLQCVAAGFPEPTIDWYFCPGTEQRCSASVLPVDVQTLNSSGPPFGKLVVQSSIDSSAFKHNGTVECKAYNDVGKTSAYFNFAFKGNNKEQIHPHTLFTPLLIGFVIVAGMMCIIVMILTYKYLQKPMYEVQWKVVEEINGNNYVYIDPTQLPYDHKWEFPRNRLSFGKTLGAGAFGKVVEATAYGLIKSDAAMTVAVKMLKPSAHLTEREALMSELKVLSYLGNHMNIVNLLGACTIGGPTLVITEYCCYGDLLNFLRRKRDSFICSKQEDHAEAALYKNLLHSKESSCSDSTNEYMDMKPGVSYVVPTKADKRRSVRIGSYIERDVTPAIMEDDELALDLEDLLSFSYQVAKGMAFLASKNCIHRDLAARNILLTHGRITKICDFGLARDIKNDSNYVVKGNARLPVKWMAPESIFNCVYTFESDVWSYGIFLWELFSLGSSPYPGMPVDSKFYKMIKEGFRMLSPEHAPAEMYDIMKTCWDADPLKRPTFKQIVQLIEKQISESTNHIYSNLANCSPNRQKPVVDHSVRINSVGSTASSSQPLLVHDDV

As for `CN1CCN(c2ccc3nc(-c4cc(-c5ccc(NC(=O)Nc6ccc(C(F)(F)F)cc6)cc5)[nH]n4)[nH]c3c2)CC1` [Entry 13, N-(4-{3-[6-(4-methylpiperazin-1-yl)-1H-benzimidazol-2-yl]-1H-pyrazol-5-yl}phenyl)-N′-[4-(trifluoromethyl)phenyl]urea], the IC50 on flt-3 and on c-Kit was less than 50 nM each time.
With `Cc1ccc(NC(=O)Nc2ccc(-c3cc(-c4ccc(N5CCN(C)CC5)cc4)[nH]n3)cc2)cc1C` [Entry 17, N-(3,4-dimethylphenyl)-N′-(4-{5-[4-(4-methylpiperazin-1-yl)phenyl]-1H-pyrazol-3-yl}phenyl)urea], the IC50 at flt-3 and on c-Kit was less than 50 nM each time.
`CN1CCN(c2ccc3nc(-c4cc(-c5ccc(NC(=O)Nc6cccc(C#N)c6)cc5)[nH]n4)[nH]c3c2)CC1` [Entry 24, N-(3-cyanophenyl)-N′-(4-{3-[6-(4-methylpiperazin-1-yl)-1H-benzimidazol-2-yl]-1H-pyrazol-5-yl}phenyl)urea]: the IC50 against flt-3 and against c-Kit was less than 50 nM in each case.
Consider `COc1ccc(NC(=O)Nc2ccc(-c3cc(-c4nc5cc(N6CCN(C)CC6)ccc5[nH]4)n[nH]3)cc2)cc1OC` [Entry 26, N-[3,4-bis(methyloxy)phenyl]-N′-(4-{3-[5-(4-methylpiperazin-1-yl)-1H-benzimidazol-2-yl]-1H-pyrazol-5-yl}phenyl)urea], for which the IC50 against flt-3 and against c-Kit was less than 50 nM throughout.
As for `COc1ccc(Cl)cc1NC(=O)Nc1ccc(-c2cc(-c3ccc(N4CCN(C)CC4)cc3)[nH]n2)cc1` [Entry 27, N-[5-chloro-2-(methyloxy)phenyl]-N′-(4-{5-[4-(4-methylpiperazin-1-yl)phenyl]-1H-pyrazol-3-yl}phenyl)urea], the IC50 on flt-3 and at c-Kit was less than 50 nM in each case.
In the case of `CN1CCN(c2ccc(-c3cc(-c4ccc(NC(=O)Nc5ccc(Oc6ccccc6)cc5)cc4)n[nH]3)cc2)CC1` [Entry 28, N-(4-{5-[4-(4-methylpiperazin-1-yl)phenyl]-1H-pyrazol-3-yl}phenyl)-N′-[4-(phenyloxy)phenyl]urea], the IC50 against flt-3 and against c-Kit was less than 50 nM in each case.
As for `Cc1ccc(F)cc1NC(=O)Nc1ccc(-c2cc(-c3nc4ccc(N5CCN(C)CC5)cc4[nH]3)n[nH]2)cc1` [Entry 38, N-(5-fluoro-2-methylphenyl)-N′-(4-{3-[6-(4-methylpiperazin-1-yl)-1H-benzimidazol-2-yl]-1H-pyrazol-5-yl}phenyl)urea], the IC50 against flt-3 and against c-Kit was less than 50 nM in each case.
In the case of `CN1CCN(c2cccc(-c3cc(-c4ccc(NC(=O)Nc5ccc(Cl)c(C(F)(F)F)c5)cc4)[nH]n3)c2)CC1` [Entry 40, N-[4-chloro-3-(trifluoromethyl)phenyl]-N′-(4-{3-[3-(4-methylpiperazin-1-yl)phenyl]-1H-pyrazol-5-yl}phenyl)urea], the IC50 – broadly, the concentration that gives 50% inhibition – against flt-3 was less than 50 nM; against c-Kit, 50 to 500 nM.
The corresponding values for `COc1ccc(NC(=O)Nc2ccc(-c3cc(-c4ccc(N5CCN(C)CC5)cc4)[nH]n3)cc2)c(OC)c1` [Entry 43, N-[2,4-bis(methyloxy)phenyl]-N′-(4-{5-[4-(4-methylpiperazin-1-yl)phenyl]-1H-pyrazol-3-yl}phenyl)urea] are less than 50 nM and 50 to 500 nM.
The corresponding values for `CC(C)(C)OC(=O)Nc1ccc(-c2cc(-c3nc4ccccc4[nH]3)n[nH]2)cc1` [Entry 52, 1,1-dimethylethyl{4-[3-(1H-benzimidazol-2-yl)-1H-pyrazol-5-yl]phenyl}carbamate] are 500 to 5000 nM and 50 to 500 nM.
On the same counts, the results for `Oc1ccc(/C=C/c2cc(-c3ccccn3)[nH]n2)cc1` [Entry 62, 4-[(E)-2-(5-pyridin-2-yl-1H-pyrazol-3-yl)ethenyl]phenol] are 50 to 500 nM and 500 to 5000 nM.
In the case of `Oc1ccc(/C=C/c2cc(-c3cc4cc(Cl)ccc4o3)n[nH]2)cc1` [Entry 63, 4-{(E)-2-[3-(5-chloro-1-benzofuran-2-yl)-1H-pyrazol-5-yl]ethenyl}phenol], the values for the IC50 against flt-3 and against c-Kit were 50 to 500 nM and 500 to 5000 nM, respectively.
The corresponding values for `CCN1CCN(c2ccc3[nH]c(-c4cc(-c5ccc(NC(=O)NC(C)(C)C)cc5)[nH]n4)nc3c2)CC1` [Entry 64, N-(1,1-dimethylethyl)-N′-(4-{3-[5-(4-ethylpiperazin-1-yl)-1H-benzimidazol-2-yl]-1H-pyrazol-5-yl}phenyl)urea] are 500 to 5000 nM and 500 to 5000 nM.
On the same counts, the results for `Oc1ccc(/C=C/c2cc(-c3ccncc3)n[nH]2)cc1` [Entry 65, 4-[(E)-2-(3-pyridin-4-yl-1H-pyrazol-5-yl)ethenyl]phenol] are 50 to 500 nM and 500 to 5000 nM.
On the same counts, the results for `Oc1ccc(/C=C/c2cc(-c3cccc(Cl)c3)n[nH]2)cc1` [Entry 66, 4-{(E)-2-[3-(3-chlorophenyl)-1H-pyrazol-5-yl]ethenyl}phenol] are 500 to 5000 nM and 500 to 5000 nM.
`COc1ccccc1-c1cc(/C=C/c2ccc(O)cc2)n[nH]1` [Entry 67, 4-((E)-2-{5-[2-(methyloxy)phenyl]-1H-pyrazol-3-yl}ethenyl)phenol]: the IC50 against flt-3 and at c-Kit was 500 to 5000 nM each time.
In the case of `Oc1ccc(/C=C/c2cc(-c3ccccc3Cl)n[nH]2)cc1` [Entry 68, 4-{(E)-2-[3-(2-chlorophenyl)-1H-pyrazol-5-yl]ethenyl}phenol], the IC50 on flt-3 lay in the range of 50 to 500 nM; on c-Kit, 500 to 5000 nM.
On the same counts, the results for `Oc1ccc(/C=C/c2cc(-c3cccnc3)n[nH]2)cc1` [Entry 69, 4-[(E)-2-(3-pyridin-3-yl-1H-pyrazol-5-yl)ethenyl]phenol] are 50 to 500 nM and 500 to 5000 nM.
On the same counts, the results for `COc1cccc(-c2cc(/C=C/c3ccc(O)cc3)n[nH]2)c1` [Entry 70, 4-((E)-2-{5-[3-(methyloxy)phenyl]-1H-pyrazol-3-yl}ethenyl)phenol] are 500 to 5000 nM and 500 to 5000 nM.
On the same counts, the results for `CC(C)(C)OC(=O)Nc1ccc(-c2cc(/C=C/c3ccccc3)n[nH]2)cc1` [Entry 71, 1,1-dimethylethyl(4-{3-[(E)-2-phenylethenyl]-1H-pyrazol-5-yl}phenyl)carbamate] are 500 to 5000 nM and 500 to 5000 nM.
Regarding `Oc1ccc(/C=C/c2cc(-c3ccc(Cl)c(Cl)c3)n[nH]2)cc1` [Entry 72, 4-{(E)-2-[3-(3,4-dichlorophenyl)-1H-pyrazol-5-yl]ethenyl}phenol], the IC50 at flt-3 and against c-Kit was 500 to 5000 nM in each case.
Take `Oc1ccc2cc(-c3cc(/C=C/c4ccccc4)[nH]n3)oc2c1` [Entry 73, 2-{5-[(E)-2-phenylethenyl]-1H-pyrazol-3-yl}-1-benzofuran-6-ol]: the IC50 on flt-3 is less than 50 nM; against c-Kit it was 500 to 5000 nM.
On the same counts, the results for `Oc1ccc(/C=C/c2cc(-c3cccc(F)c3)[nH]n2)cc1` [Entry 74, 4-{(E)-2-[5-(3-fluorophenyl)-1H-pyrazol-3-yl]ethenyl}phenol] are 50 to 500 nM and 500 to 5000 nM.
